Results: the supplement of paper PMC10307832

Compound: C=C(c1ccc(C(=O)O)cc1)c1cc2c(cc1C)C(C)(C)CCC2(C)C [Bexarotene]
Assay: relative viability (nuclei count vs DMSO), 5 days (fraction); higher = more cells survive
Summary of the method: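 Lung cancer cell lines were seeded into 1536-well plates, kept overnight at 37 °C and pinned with five library-drug doses (not always all listed) spaced by √10. After 5 days, nuclei were Hoechst-stained, imaged at 4× and counted with MetaXpress. Viability is treated-well nuclei over vehicle-well nuclei, taken as a median across plates. Plates needed control CV below 25% and at least one doubling.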

Row | Cell Line | relative viability (0.08 µM) | relative viability (0.253 µM) | relative viability (0.8 µM) | relative viability (2.53 µM) | relative viability (8 µM)
1 | HOP-62 | 1.13 | 1.11 | 1.15 | 1.04 | 1
2 | NCI-H1915 | 1.13 | 1.05 | 0.999 | 0.951 | 0.904
3 | NCI-H3122 | 1.05 | 1.11 | 1.03 | 1.04 | 1.05
4 | NCI-H1651 | 1.08 | 0.987 | 1.01 | 1.02 | 1
5 | EBC-1 | 0.901 | 1.03 | 0.971 | 1.02 | 1.08
6 | NCI-H838 | 1.04 | 1.03 | 1.04 | 1.04 | 0.996
7 | NCI-H596 | 0.956 | 0.848 | 0.957 | 0.994 | 0.919
8 | SK-LU-1 | 1.2 | 1.13 | – | 1.04 | 0.936
9 | NCI-H441 | 1.31 | 1.1 | 1.04 | 0.969 | 1
10 | NCI-H650 | 1.19 | 1.03 | 0.986 | 0.822 | 0.919
11 | SK-MES-1 | 1.16 | 1.12 | 1 | 0.98 | 0.909
12 | NCI-H1792 | 0.904 | 0.886 | 0.672 | 0.632 | 0.769
13 | NCI-H1355 | 1.11 | 1.04 | 0.945 | 0.979 | 0.96
14 | SW 1573 | 1.04 | 0.976 | 0.921 | 0.84 | 0.771
15 | A549 | 1.07 | 0.99 | 0.964 | 0.933 | 0.878
16 | NCI-H2347 | 1.18 | 1.04 | 0.809 | 0.981 | 1.07
17 | LCLC-97TM1 | 1.03 | 0.969 | 1.02 | 0.829 | 0.939
18 | EMC-BAC-2 | 1.15 | 1.02 | 1 | – | 1.02
19 | NCI-H1975 | 1.05 | 1.04 | 1.09 | 1.01 | 1.2

Row | Cell Line | relative viability (0.08 µM) | relative viability (0.253 µM) | relative viability (0.8 µM) | relative viability (2.53 µM) | relative viability (8 µM)
20 | BEN | 1.01 | 0.822 | 0.868 | 0.752 | 0.87
21 | NCI-H1703 | 0.944 | 0.968 | 0.759 | 0.647 | 0.701
22 | NCI-H23 | 1.17 | 0.927 | 0.952 | 0.82 | 0.899
23 | NCI-H520 | 1.06 | 0.869 | 0.865 | 0.852 | 0.972
24 | CAL-12T | 0.989 | 0.992 | 0.981 | 0.844 | 0.917
25 | EPLC-272H | 1 | 0.93 | 0.802 | 0.881 | 0.939
26 | LCLC-103H | 1.09 | 1.03 | 0.849 | 0.983 | 1.05
27 | NCI-H2405 | 1.12 | 1.01 | 0.857 | 0.97 | 0.986
28 | HCC-15 | 1.1 | 1.11 | 1.02 | 0.978 | 1.05
29 | PC-3 [JPC-3] | 1.14 | 0.98 | 0.918 | 0.964 | 0.932
30 | NCI-H1944 | 1.29 | 1.07 | 1.07 | 1.25 | 1.03
31 | HARA | 1.04 | 1.03 | 0.838 | 0.925 | 0.875
32 | NCI-H1563 | 1.03 | 0.911 | 0.868 | 0.938 | 0.987
33 | NCI-H2126 | 1.02 | 1.01 | 0.954 | 0.991 | 0.971
34 | LXF-289 | 1.19 | 1.18 | 1.16 | 1.17 | 1.29
35 | NCI-H460 | 1.04 | 0.976 | 0.986 | 0.944 | 0.946
36 | NCI-H1395 | 1.06 | 0.905 | 1.01 | 0.75 | 0.957
37 | NCI-H2170 | 0.96 | 0.969 | 0.942 | 0.909 | 0.831
38 | NCI-H2009 | 1.21 | 1.22 | 1.11 | 1.08 | 1.07
